Data from ChEMBL document CHEMBL1127835, “Structure-activity relationships of N6-benzyladenosine-5'-uronamides as A3-selective adenosine agonists” (J Med Chem, 1994).
pKi: −log10 of the molar value.

What was measured:
[1] = Ratio of binding affinities for A2 receptor compared to that of A3 receptor
Adenosine A2 receptor = Adenosine A2 receptor (Rattus norvegicus, UniProt P29276+P30543)
Description: Binding affinity for A2-adenosine receptor by the displacement of specific [3H]-CGS- binding in rat striatal membranes was determined

Adenosine receptor A1 = target: T1, Adenosine receptor A1 (Rattus norvegicus, UniProt P25099); assay: biochemical
T1 sequence (P25099 whole entry): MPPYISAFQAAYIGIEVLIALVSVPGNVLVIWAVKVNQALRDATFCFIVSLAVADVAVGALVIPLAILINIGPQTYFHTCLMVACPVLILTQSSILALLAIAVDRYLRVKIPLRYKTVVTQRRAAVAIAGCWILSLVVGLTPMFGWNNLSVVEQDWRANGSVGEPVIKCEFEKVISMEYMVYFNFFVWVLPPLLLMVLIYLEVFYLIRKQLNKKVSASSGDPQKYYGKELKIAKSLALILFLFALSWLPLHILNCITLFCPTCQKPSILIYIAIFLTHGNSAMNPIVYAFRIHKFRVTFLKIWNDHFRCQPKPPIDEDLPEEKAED
Description: Binding affinity for A1-adenosine receptor by the displacement of specific [3H]-PIA binding in rat brain was determined

Adenosine receptor A3 [2] = target: T2, Adenosine receptor A3 (Rattus norvegicus, UniProt P28647); assay: biochemical
T2 sequence (P28647 whole entry): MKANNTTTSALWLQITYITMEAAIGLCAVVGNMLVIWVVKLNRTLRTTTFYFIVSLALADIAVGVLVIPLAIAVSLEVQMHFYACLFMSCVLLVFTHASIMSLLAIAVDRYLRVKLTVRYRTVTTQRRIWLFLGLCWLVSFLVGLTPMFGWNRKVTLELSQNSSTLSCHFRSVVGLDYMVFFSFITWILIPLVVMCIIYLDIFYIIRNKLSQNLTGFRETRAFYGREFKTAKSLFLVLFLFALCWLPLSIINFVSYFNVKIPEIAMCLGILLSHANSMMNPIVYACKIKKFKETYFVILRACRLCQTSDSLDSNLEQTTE
Description: Binding affinity for rat A3-adenosine receptor expressed in chinese hamster ovarian cells (assayed by the displacement of specific [125I]-N6-(4-amino-3-iodobenzyl)-adenosine-5''-N-methyluronamide)

[3] = target: T3, Adenosine receptor A1 (Rattus norvegicus) (UniProt P25099); assay: Percentage inhibition against [3H]-PIA binding to A1-adenosine receptor in rat brain at 10e-4 nM; format: tissue-based
T3 sequence (whole entry): T1 sequence (P25099 whole entry)

[4] = target: T4, Adenosine A2 receptor (Rattus norvegicus) (UniProt P29276+P30543); assay: Percentage inhibition of [3H]-CGS- 21680 binding to […] receptor in rat brain at 10e-4 nM; format: tissue-based
Adenosine receptor A3 [5] = target: T2, Adenosine receptor A3
Description: Binding affinity for recombinant rat A3-adenosine receptor by the displacement of specific [125I]APNEA or [125I]-N6-(4-amino-3-iodobenzyl)-adenosine-5'-N-methyluronamide

[6] = target: T3, Adenosine receptor A1 (Rattus norvegicus); details: Brain, 10e-5 nM
[7] = target: T4, Adenosine A2 receptor (Rattus norvegicus); details: Brain, 10e-5 nM
Description: Percentage inhibition against [3H]-CGS- 21680 binding to A1-adenosine receptor in rat brain at 10e-5 nM

[8] = target: T3, Adenosine receptor A1 (Rattus norvegicus); assay: Percentage inhibition against [3H]PIA binding to A1-adenosine receptor in rat brain at 10e-5 nM; format: tissue-based
[9] = target: T4, Adenosine A2 receptor (Rattus norvegicus); assay: Percentage inhibition of [3H]-CGS- 21680 binding to […] receptor in rat brain at 10e-5 nM; format: tissue-based
[10] = target: T3, Adenosine receptor A1 (Rattus norvegicus); assay: Percentage inhibition against [3H]PIA binding to A1-adenosine receptor in rat brain at 1xe-4 nM; format: tissue-based
[11] = target: T4, Adenosine A2 receptor (Rattus norvegicus); assay: Percentage inhibition against [3H]-CGS- 21680 binding to A2-adenosine receptor in rat brain at 1xe-4 nM; format: tissue-based

Compound	Ratio [1]	Ki (Adenosine A2 receptor) [nM]	pKi (Adenosine receptor A1)	also measured
CNC(=O)[C@H]1OC(n2cnc3c(NCc4cccc(S(=O)(=O)O)c4)ncnc32)[C@H](O)[C@@H]1O (stereo partly specified)	6.9	9070	4.71	pKi (Adenosine receptor A3 [2]): 5.88
CNC(=O)[C@H]1O[C@@H](n2cnc3c(NCc4ccc(N)c(I)c4)ncnc32)[C@H](O)[C@@H]1O	–	197	7.74	–
CCNC(=O)[C@H]1O[C@@H](n2cnc3c(N)[n+](Cc4ccc([N+](=O)[O-])cc4)cnc32)[C@H]([O-])[C@@H]1O	3.2	190	6.47	pKi (Adenosine receptor A3 [5]): 7.22
CCNC(=O)[C@H]1O[C@@H](n2cnc3c(NCc4ccc([N+](=O)[O-])cc4)ncnc32)[C@H](O)[C@@H]1O	64	–	–	–
CCNC(=O)[C@H]1OC(n2cnc3c(=O)[nH]cnc32)[C@H](O)[C@@H]1O (stereo partly specified)	–	–	–	pKi (Adenosine receptor A3 [5]): 5.30
NC(=O)[C@H]1O[C@@H](n2cnc3c(NCc4ccccc4)ncnc32)[C@H](O)[C@@H]1O	1.7	423	–	–
CNC(=O)[C@H]1OC(n2cnc3c(NCc4cccc(N)c4)ncnc32)[C@H](O)[C@@H]1O (stereo partly specified)	28	794	6.00	pKi (Adenosine receptor A3 [2]): 7.55
CCNC(=O)[C@H]1O[C@@H](n2cnc3c(NCc4cccc(C)c4)ncnc32)[C@H](O)[C@@H]1O	15	17.7	–	–
CNC(=O)[C@H]1O[C@@H](n2cnc3c(O)ncnc32)[C@H](O)[C@@H]1O	> 10	–	–	inhibition [3]: 0%; inhibition [4]: 6.2%
CCNC(=O)[C@H]1O[C@@H](n2cnc3c(NCc4cccc(F)c4)ncnc32)[C@H](O)[C@@H]1O	3	32	–	–
CC(C)(C)OC(=O)NCCNC(=O)[C@H]1O[C@@H](n2cnc3c(N)ncnc32)[C@H](O)[C@@H]1O	> 1	–	–	inhibition [8]: 0%; inhibition [9]: 0%
CCNC(=O)[C@H]1O[C@@H](n2cnc3c(NCc4ccccc4OC)ncnc32)[C@H](O)[C@@H]1O	3	21	–	–
NC(=O)[C@H]1OC(n2cnc3c(N)ncnc32)[C@H](O)[C@@H]1O (stereo partly specified)	0.085	120	7.14	pKi (Adenosine receptor A3 [5]): 5.85
CNC(=O)[C@H]1O[C@@H](n2cnc3c(NCc4cccc(Br)c4)ncnc32)[C@H](O)[C@@H]1O	34	64	–	pKi (Adenosine receptor A3 [2]): 8.72
CCNC(=O)[C@H]1O[C@@H](n2cnc3c(NCc4ccccc4)ncnc32)[C@H](O)[C@@H]1O	14	95	–	–
CCNC(=O)[C@H]1OC(n2cnc3c(NCc4cccc(Br)c4)ncnc32)[C@H](O)[C@@H]1O (stereo partly specified)	–	–	7.96	pKi (Adenosine receptor A3 [2]): 8.55

Second part, led by results:

Ratio [1]	Ki (Adenosine A2 receptor) [nM]	pKi (Adenosine receptor A1)	Compound	also measured
> 1	–	–	CCNC(=O)[C@H]1OC(n2cnc3c(O)ncnc32)[C@H](O)[C@@H]1O (stereo partly specified)	inhibition [3]: 44%; inhibition [4]: 31%
37	597	–	CNC(=O)[C@H]1O[C@@H](n2cnc3c(NCc4ccccc4)ncnc32)[C@H](O)[C@@H]1O	–
3.1	83.5	6.71	CCNC(=O)[C@H]1O[C@@H](n2cnc3c(N)[n+](Cc4ccccc4[N+](=O)[O-])cnc32)[C@H](O)[C@@H]1[O-]	pKi (Adenosine receptor A3 [5]): 7.57
14	259	–	CCNC(=O)[C@H]1O[C@@H](n2cnc3c(N[C@H](C)c4ccccc4)ncnc32)[C@H](O)[C@@H]1O	–
8.8	38	–	CCNC(=O)[C@H]1O[C@@H](n2cnc3c(NCc4cccc(OC)c4)ncnc32)[C@H](O)[C@@H]1O	–
42	415	–	CNC(=O)[C@H]1O[C@@H](n2cnc3c(NCc4cccc(C)c4)ncnc32)[C@H](O)[C@@H]1O	–
4	35	–	CCNC(=O)[C@H]1O[C@@H](n2cnc3c(NCc4cccc([N+](=O)[O-])c4)ncnc32)[C@H](O)[C@@H]1O	–
> 1	–	–	NCCNC(=O)[C@H]1O[C@@H](n2cnc3c(N)ncnc32)[C@H](O)[C@@H]1O	inhibition [6]: 0%; inhibition [7]: 12.5%
24	988	5.53	CNC(=O)[C@H]1OC(n2cnc3c(NCc4cccc(NC(C)=O)c4)ncnc32)[C@H](O)[C@@H]1O (stereo partly specified)	pKi (Adenosine receptor A3 [2]): 7.38
0.22	101	6.81	CCNC(=O)[C@H]1OC(n2cnc3c(N)[n+]([O-])cnc32)[C@H](O)[C@@H]1O (stereo partly specified)	pKi (Adenosine receptor A3 [5]): 6.33
55	609	–	CCNC(=O)[C@H]1O[C@@H](n2cnc3c(NCc4ccc(OC)cc4)ncnc32)[C@H](O)[C@@H]1O	–
8.6	24	–	CCNC(=O)[C@H]1O[C@@H](n2cnc3c(NCc4ccccc4[N+](=O)[O-])ncnc32)[C@H](O)[C@@H]1O	–
160	2730	6.32	CNC(=O)[C@H]1OC(n2cnc3c(NCc4ccc(Cl)cc4)ncnc32)[C@H](O)[C@@H]1O (stereo partly specified)	pKi (Adenosine receptor A3 [2]): 7.77
3.3	1650	7.19	CCNC(=O)[C@H]1OC(n2cnc3c(N[C@@H](C)c4ccccc4)ncnc32)[C@H](O)[C@@H]1O (stereo partly specified)	pKi (Adenosine receptor A3 [2]): 6.31
110	1590	–	CNC(=O)[C@H]1OC(n2cnc3c(NCc4ccc(N)cc4)ncnc32)[C@H](O)[C@@H]1O (stereo partly specified)	–
23	441	6.13	CNC(=O)[C@H]1OC(n2cnc3c(NCc4cccc([N+](=O)[O-])c4)ncnc32)[C@H](O)[C@@H]1O (stereo partly specified)	pKi (Adenosine receptor A3 [2]): 7.72
25	559	6.04	CNC(=O)[C@H]1O[C@@H](n2cnc3c(NCc4cccc(Cl)c4)ncnc32)[C@H](O)[C@@H]1O	pKi (Adenosine receptor A3 [5]): 7.66
0.53	55	6.95	O=C(NC1CC1)[C@H]1OC(n2cnc3c(NCc4ccccc4)ncnc32)[C@H](O)[C@@H]1O (stereo partly specified)	pKi (Adenosine receptor A3 [5]): 6.99
19	574	6.30	CNC(=O)[C@H]1OC(n2cnc3c(NCc4cccc(C(F)(F)F)c4)ncnc32)[C@H](O)[C@@H]1O (stereo partly specified)	pKi (Adenosine receptor A3 [2]): 7.51
8.2	7.2	–	CCNC(=O)[C@H]1O[C@@H](n2cnc3c(NCc4cccc(I)c4)ncnc32)[C@H](O)[C@@H]1O	–
> 100	–	–	CNC(=O)[C@H]1OC(n2cnc3c(NCc4ccc(S(=O)(=O)O)cc4)ncnc32)[C@H](O)[C@@H]1O (stereo partly specified)	inhibition [10]: 0%; inhibition [11]: 0%; pKi (Adenosine receptor A3 [2]): 5.35
17	19	–	CCNC(=O)[C@H]1O[C@@H](n2cnc3c(NCc4cccc(Cl)c4)ncnc32)[C@H](O)[C@@H]1O	–
200	2460	6.29	CNC(=O)[C@H]1OC(n2cnc3c(NCc4ccc(Br)cc4)ncnc32)[C@H](O)[C@@H]1O (stereo partly specified)	pKi (Adenosine receptor A3 [2]): 7.92
